Assay results from patent US7163700B2, “Amorphous drug beads” (Capricorn Pharma, Inc., priority 2001, dated 2007).

Assay: Dissolution test of amorphous Itraconazole drug beads versus crystalline Itraconazole (FIG. 1)
Type: physicochemical
Settings: over the same time period
Text: Quantities of Itraconazole and Pluronic™ F68 in a ratio of 9 parts Itraconazole to 1 part Pluronic™ F68 were melted separately in an oil bath. Once both components were completely melted, they were combined, emulsified with high shear, and poured onto a cold plate to cool rapidly.

CCC(C)n1ncn(-c2ccc(N3CCN(c4ccc(OCC5COC(Cn6cncn6)(c6ccc(Cl)cc6Cl)O5)cc4)CC3)cc2)c1=O (stereo not shown) [crystalline Itraconazole, 4-[4-[4-[4-[[2-(2,4-Dichlorophenyl)-2-(1H-1,2,4-triazol-1-ylmethyl)-1,3-dioxolan-4-yl]methoxy]phenyl]-1-piperazinyl]phenyl]-2,4-dihydro-2-(1-methylpropyl)-3H-1,2,4-triazol-3-one]
dissolution rate (percent dissolution versus time): 20%
